Assays:
Assay type in all cases: in vivo
[1] = system: Leptochloa chinensis (L.) NEES (Chinese sprangletop); test: In-water applied herbicidal activity in transplanted paddy rice (Example 17); conditions: LEFCH, probit analysis; for GR50: 50% growth reduction; for GR80: 80% growth reduction; for GR90: 90% growth reduction
Procedure, shortened: (§1)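 Ester forms of test compounds, in acetone diluted with aqueous Agri-dex (final 1.25% v/v crop oil concentrate), were injected into the flood water of paddy pots holding weeds or rice at the 2nd–3rd leaf stage in mud (pH ~7.3–7.8). Visual injury versus untreated plants was scored 0–100% after 3 weeks in greenhouse (~29/26 °C). GR50/GR80 were derived by probit analysis.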

[2] = system: Ipomoea hederacea (Morningglory, ivyleaf); test: General postemergence herbicidal activity (Example 13); conditions: post-emergent spray, 14 DAA
Description: Seeds or nutlets of the desired test plant species were planted in Sun Gro Metro-Mix® 360 planting mixture, which typically has a pH of 6.0 to 6.8 and an organic matter content of about 30 percent, in plastic pots with a surface area of 84.6 square centimeters (cm^2). When required to ensure good germination and healthy plants, a fungicide treatment and/or other chemical or physical treatment was applied. The plants were grown for 7-31 days (d) in a greenhouse with an approximate 15 hour (h) photoperiod which was maintained at about 23-29° C. during the day and 22-28° C. during the night. Nutrients and water were added on a regular basis and supplemental lighting was provided with overhead metal halide 1000-Watt lamps as necessary. The plants were employed for testing when they reached the first or second true leaf stage.
Treatments consisted of esters of compounds 33 and 39 and F and G. Compound F is methyl 6-amino-2-(4-chloro-2-fluoro-3-methoxyphenyl)-5-methoxypyrimidine-4-carboxylate; and compound G is methyl 4-amino-3-chloro-6-(4-chloro-2-fluoro-3-methoxyphenyl)picolinate. A weighed amount, determined by the highest rate to be tested, of each test compound was placed in a 25 mL glass vial and was dissolved in 4 mL of a 97:3 v/v (volume/volume) mixture of acetone and dimethyl sulfoxide (DMSO) to obtain concentrated stock solutions. […] The concentrated stock solutions obtained were diluted with 20 mL of an aqueous mixture containing acetone, water, isopropyl alcohol, DMSO, Atplus 411F crop oil concentrate, and Triton® X-155 surfactant in a 48.5:39:10:1.5:1.0:0.02 v/v ratio to obtain spray solutions containing the highest application rates. Additional application rates were obtained by serial dilution of 12 mL of the high rate solution into a solution containing 2 mL of a 97:3 v/v (volume/volume) mixture of acetone and DMSO and 10 mL of an aqueous mixture containing acetone, water, isopropyl alcohol, DMSO, Atplus 411F crop oil concentrate, and Triton® X-155 surfactant in a 48.5:39:10:1.5:1.0:0.02 v/v ratio to obtain ½×, ¼×, ⅛× and 1/16× rates of the high rate. Compound requirements are based upon a 12 mL application volume at a rate of 187 liters per hectare (L/ha). Formulated compounds were applied to the plant material with an overhead Mandel track sprayer equipped with 8002E nozzles calibrated to deliver 187 L/ha over an application area of 0.503 square meters (m^2) at a spray height of 18 inches (43 cm) above the average plant canopy height. Control plants were sprayed in the same manner with the solvent blank.
The treated plants and control plants were placed in a greenhouse as described above and watered by sub-irrigation to prevent wash-off of the test compounds. After 14 d, the condition of the test plants as compared with that of the untreated plants was determined visually and scored on a scale of 0 to 100 percent where 0 corresponds to no injury and 100 corresponds to complete kill.

[3] = system: Cyperus rotundus L. (purple nutsedge); test: In-water applied herbicidal activity in transplanted paddy rice (Example 17); conditions: rice cropping systems, 35 g ae/ha, 21 DAA, may represent multiple trials
Procedure, shortened: as §1

[4] = 35 g ai/ha, 0 = no injury, 100 = complete kill

SMILES | GR50 [1] [g ae/ha] | GR80 [1] [g ae/ha] | GR90 [1] [g ae/ha] | Visual Injury (%) IPOHE ([2]; 8.75 g ai/ha) [%] | Visual Injury (%) IPOHE ([2]; 17.5 g ai/ha) [%] | Visual Injury (%) IPOHE [2, 4] [%] | Visual Injury (%) CYPRO [3] [%] | Visual Injury (%) IPOHE ([2]; 70 g ai/ha) [%]
COc1c(Cl)ccc(-c2nc(C(=O)OCc3ccccc3)c(Cl)c(N)c2F)c1F [Compound 1, benzyl 4-amino-3-chloro-6-(4-chloro-2-fluoro-3-methoxyphenyl)-5-fluoropicolinate] | 50.4 | 78.6 | 99.1 | – | – | – | – | –
COC(=O)c1nc(-c2ccc(Cl)c(OC)c2F)c(F)c(N)c1Cl [E, methyl 4-amino-3-chloro-6-(4-chloro-2-fluoro-3-methoxyphenyl)-5-fluoropicolinate, reference compound] | 59.9 | 99.4 | 130.0 | – | – | – | – | –
COc1c(Cl)ccc(-c2cc(N)c(Cl)c(C(=O)OCc3ccccc3)n2)c1F [Compound 39] | – | – | – | 70 | 75 | 80 | 80 | –
COC(=O)c1nc(-c2ccc(Cl)c(OC)c2F)nc(N)c1OC [Compound F, methyl 6-amino-2-(4-chloro-2-fluoro-3-methoxyphenyl)-5-methoxypyrimidine-4-carboxylate, reference compound] | – | – | – | – | – | – | – | 80
COC(=O)c1nc(-c2ccc(Cl)c(OC)c2F)cc(N)c1Cl [Compound G, methyl 4-amino-3-chloro-6-(4-chloro-2-fluoro-3-methoxyphenyl)picolinate, reference compound] | – | – | – | 40 | 50 | 65 | 47 | –
